Data: PubChem BioAssay (NCI)
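Compound exposure: 48 hours, 5 concentrations, 96-well plates. The concentration for 50% growth inhibition is given as GI50. The concentration for full growth arrest is given as TGI.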

What was measured:
Test in all cases: NCI-60 cell line screen, 48 h
[1] = tested on: HS 578T breast
[2] = tested on: T-47D breast
[3] = tested on: SK-MEL-28 melanoma
[4] = tested on: KM12 colon
[5] = tested on: UACC-257 melanoma
[6] = tested on: SK-MEL-2 melanoma
[7] = tested on: OVCAR-3 ovarian
[8] = tested on: A549 NSCLC
[9] = tested on: M14 melanoma
[10] = tested on: HCC-2998 colon
[11] = tested on: HOP-62 NSCLC
[12] = tested on: RPMI-8226 leukemia
[13] = tested on: SF-268 CNS
[14] = tested on: SK-MEL-5 melanoma
[15] = tested on: SN12C renal
[16] = tested on: SNB-75 CNS
[17] = tested on: OVCAR-4 ovarian
[18] = tested on: DU-145 prostate
[19] = tested on: LOX IMVI melanoma
[20] = tested on: MDA-MB-468 breast
[21] = tested on: HT29 colon
[22] = tested on: SNB-19 CNS
[23] = tested on: MALME-3M melanoma
[24] = tested on: MCF7 breast
[25] = tested on: NCI-H460 lung
[26] = tested on: 786-0 renal
[27] = tested on: OVCAR-5 ovarian
[28] = tested on: SW-620 colon
[29] = tested on: SK-OV-3 ovarian
[30] = tested on: IGROV1 ovarian
[31] = tested on: NCI/ADR-RES ovarian
[32] = tested on: HOP-92 NSCLC
[33] = tested on: BT-549 breast
[34] = tested on: U251 CNS
[35] = tested on: TK-10 renal
[36] = tested on: UACC-62 melanoma
[37] = tested on: RXF 393 renal
[38] = tested on: HCT-116 colon
[39] = tested on: COLO 205 colon
[40] = tested on: HL-60(TB) leukemia
[41] = tested on: MDA-MB-435
[42] = tested on: A498 renal
[43] = tested on: ACHN renal
[44] = tested on: PC-3 prostate
[45] = tested on: SF-295 CNS
[46] = tested on: K-562 leukemia
[47] = tested on: NCI-H226 lung
[48] = tested on: NCI-H522 lung
[49] = tested on: UO-31 renal
[50] = tested on: CCRF-CEM leukemia
[51] = tested on: MDA-MB-231 breast
[52] = tested on: MOLT-4 leukemia
[53] = tested on: NCI-H23 lung
[54] = tested on: CAKI-1 renal
[55] = tested on: SF-539 CNS
[56] = tested on: HCT-15 colon
[57] = tested on: EKVX NSCLC
[58] = tested on: SR leukemia
[59] = tested on: OVCAR-8 ovarian

Work on `O=C(CSc1nnc(-c2ccc(-c3nc4ccccc4[nH]3)cc2)o1)Nc1ccc(Br)cc1` yielded a GI50 [1] of 3.39 µM, a TGI [1] of 16.3 µM and a GI50 [2] of 3.81 µM. It also gave a TGI [2] of 20.2 µM, a GI50 [3] of 2.62 µM and a TGI [3] of 7.91 µM. The GI50 [4] was 3.98 µM, the TGI [4] was 18.6 µM and the GI50 [5] was 4.76 µM. It also gave a TGI [5] of 20.5 µM, a GI50 [6] of 12.2 µM and a TGI [6] of 26.4 µM. For the same compound, the GI50 [7] was 2.74 µM, the TGI [7] was 8.95 µM and the GI50 [8] was 2.4 µM. It also gave a TGI [8] of 6.24 µM, a GI50 [9] of 3.82 µM and a TGI [9] of 17.8 µM. The GI50 [10] was 12.9 µM, the TGI [10] was 31.2 µM and the GI50 [11] was 2.88 µM. The TGI [11] was 8.21 µM, the GI50 [12] was 3.24 µM and the TGI [12] was 36.1 µM. The GI50 [13] was 2.44 µM, the TGI [13] was 6.61 µM and the GI50 [14] was 4.8 µM. The TGI [14] was 17.3 µM, the GI50 [15] was 3.4 µM and the TGI [15] was 12.7 µM. The GI50 [16] was 2 µM, the TGI [16] was 7.51 µM and the GI50 [17] was 3.23 µM. For the same compound, the TGI [17] was 12.3 µM, the GI50 [18] was 3.2 µM and the TGI [18] was 10.8 µM. The GI50 [19] was 1.73 µM, the TGI [19] was 3.48 µM and the GI50 [20] was 6.47 µM. It also gave a TGI [20] of 20.7 µM, a GI50 [21] of 2.87 µM and a TGI [21] of 12.8 µM. For the same compound, the GI50 [22] was 5.36 µM, the TGI [22] was 18 µM and the GI50 [23] was 2.37 µM. For the same compound, the TGI [23] was 6.33 µM, the GI50 [24] was 2.88 µM and the TGI [24] was 12.5 µM. For the same compound, the GI50 [25] was 1.95 µM, the TGI [25] was 4.54 µM and the GI50 [26] was 2.17 µM. It also gave a TGI [26] of 4.29 µM, a GI50 [27] of 6.53 µM and a TGI [27] of 20.4 µM. It also gave a GI50 [28] of 3.1 µM, a TGI [28] of 11.6 µM and a GI50 [29] of 12.1 µM. The TGI [29] was 34.9 µM, the GI50 [30] was 10.3 µM and the TGI [30] was 22.6 µM. The GI50 [31] was 5.14 µM, the TGI [31] was 19.1 µM and the GI50 [32] was 3.24 µM. It also gave a TGI [32] of 11.5 µM, a GI50 [33] of 3.03 µM and a TGI [33] of 7.93 µM. For the same compound, the GI50 [34] was 6.78 µM, the TGI [34] was 20.3 µM and the GI50 [35] was 14.8 µM. The TGI [35] was 29.6 µM, the GI50 [36] was 4.13 µM and the TGI [36] was 15.5 µM. For the same compound, the GI50 [37] was 2.26 µM, the TGI [37] was 5.82 µM and the GI50 [38] was 3.43 µM. It also gave a TGI [38] of 13.7 µM, a GI50 [39] of 10.6 µM and a TGI [39] of 30.5 µM. It also gave a GI50 [40] of 6.37 µM, a TGI [40] of 33.1 µM and a GI50 [41] of 2.11 µM. The TGI [41] was 7.73 µM, the GI50 [42] was 19 µM and the TGI [42] was 35.3 µM. It also gave a GI50 [43] of 3.55 µM, a TGI [43] of 12.8 µM and a GI50 [44] of 2.57 µM. The TGI [44] was 8.99 µM, the GI50 [45] was 2.31 µM and the TGI [45] was 5.97 µM. It also gave a GI50 [46] of 3.01 µM, a TGI [46] of over 100 µM and a GI50 [47] of 2.63 µM. It also gave a TGI [47] of 9.59 µM, a GI50 [48] of 2.74 µM and a TGI [48] of 14.6 µM. For the same compound, the GI50 [49] was 5.91 µM, the TGI [49] was 18.9 µM and the GI50 [50] was 3.41 µM. The TGI [50] was 15.8 µM, the GI50 [51] was 4.38 µM and the TGI [51] was 15.1 µM. It also gave a GI50 [52] of 3.26 µM, a TGI [52] of 18 µM and a GI50 [53] of 3.22 µM. For the same compound, the TGI [53] was 12.4 µM, the GI50 [54] was 2.03 µM and the TGI [54] was 4.83 µM. It also gave a GI50 [55] of 2 µM, a TGI [55] of 4.7 µM and a GI50 [56] of 3.66 µM. For the same compound, the TGI [56] was 15.1 µM, the GI50 [57] was 4.2 µM and the TGI [57] was 16.3 µM. For the same compound, the GI50 [58] was 4.57 µM, the TGI [58] was 40.1 µM and the GI50 [59] was 4.11 µM. The TGI [59] was 15.6 µM.
